According to patent publication US11445724B2, “Insecticidal compounds” (SYNGENTA PARTICIPATIONS AG, priority 2013, dated 2022):

Assays:
Type in all cases: in vivo
[1] = tested on: Diabrotica balteata (Corn root worm); test: Diabrotica balteata (Corn root worm) larval mortality, artificial diet in 24-well MTP; conditions: 120 h, application rate 200 ppm (concentration in well 18 ppm), L2 larvae, larval mortality after 5 days
[2] = tested on: Myzus persicae (Green peach aphid); test: Myzus persicae (Green peach aphid) mortality, sprayed sunflower leaf discs; conditions: foliar, 144 h, 200 ppm spray on sunflower leaf discs, mixed ages, mortality 6 DAT
[3] = tested on: Myzus persicae (Green peach aphid); test: Myzus persicae (Green peach aphid) mortality, test compounds mixed with Sucrose solution under Parafilm; conditions: 120 h, 12.5 ppm in Sucrose solution, infested pea seedlings on Parafilm, mortality 5 days after infestation
[4] = tested on: Plutella xylostella (Diamond back moth); test: Plutella xylostella (Diamond back moth) larval mortality, artificial diet in 24-well MTP; conditions: 144 h, application rate 200 ppm (concentration in well 18 ppm), L2 larvae, larval mortality after 6 days
[5] = tested on: Spodoptera littoralis (Egyptian cotton leafworm); test: Spodoptera littoralis (Egyptian cotton leafworm) mortality, sprayed cotton leaf discs; conditions: foliar, 72 h, 200 ppm spray on cotton leaf discs, L1 larvae, mortality 3 DAT
[6] = tested on: Tetranychus urticae (Two-spotted spider mite); test: Tetranychus urticae (Two-spotted spider mite) mortality, sprayed bean leaf discs; conditions: foliar, 192 h, 200 ppm spray on bean leaf discs, mixed ages, egg, larval and adult mortality after 8 days
[7] = tested on: Thrips tabaci (Onion thrips); test: Thrips tabaci (Onion thrips) mortality, sprayed sunflower leaf discs; conditions: foliar, 168 h, 200 ppm spray on sunflower leaf discs, mixed ages, mortality after 7 days

COc1c(NC(=O)c2ccc([N+](=O)[O-])cc2)cccc1C(=O)Nc1c(Cl)cc(C(F)(C(F)(F)F)C(F)(F)F)cc1OC(F)F [Compound 81]
≥ 80%: pest or weed control at 200 ppm [1] | pest or weed control at 200 ppm [2] | pest or weed control at 12.5 ppm [3] | pest or weed control at 200 ppm [4] | pest or weed control at 200 ppm [5] | pest or weed control at 200 ppm [6] | pest or weed control at 200 ppm [7]

O=C(Nc1cccc(C(=O)Nc2c(Br)cc(C(F)(C(F)(F)F)C(F)(F)F)cc2OC(F)F)c1F)c1ccccc1F [Compound 83]
≥ 80%: pest or weed control at 200 ppm [1] | pest or weed control at 200 ppm [2] | pest or weed control at 12.5 ppm [3] | pest or weed control at 200 ppm [4] | pest or weed control at 200 ppm [5] | pest or weed control at 200 ppm [6] | pest or weed control at 200 ppm [7]

COc1c(NC(=O)c2ccc(F)cc2C)cccc1C(=O)Nc1c(Cl)cc(C(F)(C(F)(F)F)C(F)(F)F)cc1OC(F)F [Compound 84]
≥ 80%: pest or weed control at 200 ppm [1] | pest or weed control at 200 ppm [2] | pest or weed control at 12.5 ppm [3] | pest or weed control at 200 ppm [4] | pest or weed control at 200 ppm [5] | pest or weed control at 200 ppm [6] | pest or weed control at 200 ppm [7]

COc1c(NC(=O)c2ccc([N+](=O)[O-])cc2Cl)cccc1C(=O)Nc1c(Cl)cc(C(F)(C(F)(F)F)C(F)(F)F)cc1OC(F)F [Compound 86]
≥ 80%: pest or weed control at 200 ppm [1] | pest or weed control at 200 ppm [2] | pest or weed control at 12.5 ppm [3] | pest or weed control at 200 ppm [4] | pest or weed control at 200 ppm [5] | pest or weed control at 200 ppm [6] | pest or weed control at 200 ppm [7]

COc1c(NC(=O)c2ccc(C(F)(F)F)cc2)cccc1C(=O)Nc1c(Cl)cc(C(F)(C(F)(F)F)C(F)(F)F)cc1OC(F)F [Compound 89]
≥ 80%: pest or weed control at 200 ppm [1] | pest or weed control at 200 ppm [2] | pest or weed control at 12.5 ppm [3] | pest or weed control at 200 ppm [4] | pest or weed control at 200 ppm [5] | pest or weed control at 200 ppm [6] | pest or weed control at 200 ppm [7]

COc1c(NC(=O)c2ccc(F)cc2)cccc1C(=O)Nc1c(Cl)cc(C(F)(C(F)(F)F)C(F)(F)F)cc1OC(F)F [Compound 93]
≥ 80%: pest or weed control at 200 ppm [1] | pest or weed control at 200 ppm [2] | pest or weed control at 12.5 ppm [3] | pest or weed control at 200 ppm [4] | pest or weed control at 200 ppm [5] | pest or weed control at 200 ppm [6] | pest or weed control at 200 ppm [7]

COc1c(C(=O)C(C(C)=O)c2c(Br)cc(C(F)(C(F)(F)F)C(F)(F)F)cc2OC(F)F)cccc1N(C)C(=O)c1ccncc1 (centres unmarked) [Compound 99]
≥ 80%: pest or weed control at 200 ppm [1] | pest or weed control at 200 ppm [2] | pest or weed control at 12.5 ppm [3] | pest or weed control at 200 ppm [4] | pest or weed control at 200 ppm [5] | pest or weed control at 200 ppm [6] | pest or weed control at 200 ppm [7]

Cc1cc(C(F)(C(F)(F)F)C(F)(F)F)cc(OC(F)F)c1NC(=O)c1cccc(NC(=O)c2ccncc2)c1F [Compound 100]
≥ 80%: pest or weed control at 200 ppm [1] | pest or weed control at 200 ppm [2] | pest or weed control at 12.5 ppm [3] | pest or weed control at 200 ppm [4] | pest or weed control at 200 ppm [5] | pest or weed control at 200 ppm [6] | pest or weed control at 200 ppm [7]

CCN(C(=O)c1ccncc1)c1cccc(C(=O)Nc2c(C)cc(C(F)(C(F)(F)F)C(F)(F)F)cc2OC(F)F)c1F [Compound 101]
≥ 80%: pest or weed control at 200 ppm [1] | pest or weed control at 200 ppm [2] | pest or weed control at 12.5 ppm [3] | pest or weed control at 200 ppm [4] | pest or weed control at 200 ppm [5] | pest or weed control at 200 ppm [6] | pest or weed control at 200 ppm [7]

COc1c(C(=O)Nc2c(Br)cc(C(F)(C(F)(F)F)C(F)(F)F)cc2OC(F)F)cccc1N(C)C(=O)c1ccncc1 [Compound 102]
≥ 80%: pest or weed control at 200 ppm [1] | pest or weed control at 200 ppm [2] | pest or weed control at 12.5 ppm [3] | pest or weed control at 200 ppm [4] | pest or weed control at 200 ppm [5] | pest or weed control at 200 ppm [6] | pest or weed control at 200 ppm [7]

CCN(C(=O)c1ccc([N+](=O)[O-])cc1)c1cccc(C(=O)Nc2c(Br)cc(C(F)(C(F)(F)F)C(F)(F)F)cc2OC(F)F)c1F [Compound 103]
≥ 80%: pest or weed control at 200 ppm [1] | pest or weed control at 200 ppm [2] | pest or weed control at 12.5 ppm [3] | pest or weed control at 200 ppm [4] | pest or weed control at 200 ppm [5] | pest or weed control at 200 ppm [6] | pest or weed control at 200 ppm [7]

CCN(C(=O)c1cccc(F)c1F)c1cccc(C(=O)Nc2c(Br)cc(C(F)(C(F)(F)F)C(F)(F)F)cc2OC(F)F)c1F [Compound 108]
≥ 80%: pest or weed control at 200 ppm [1] | pest or weed control at 200 ppm [2] | pest or weed control at 12.5 ppm [3] | pest or weed control at 200 ppm [4] | pest or weed control at 200 ppm [5] | pest or weed control at 200 ppm [6] | pest or weed control at 200 ppm [7]

CCN(C(=O)c1ccc(F)cc1F)c1cccc(C(=O)Nc2c(Br)cc(C(F)(C(F)(F)F)C(F)(F)F)cc2OC(F)F)c1F [Compound 109]
≥ 80%: pest or weed control at 200 ppm [1] | pest or weed control at 200 ppm [2] | pest or weed control at 12.5 ppm [3] | pest or weed control at 200 ppm [4] | pest or weed control at 200 ppm [5] | pest or weed control at 200 ppm [6] | pest or weed control at 200 ppm [7]

CCN(C(=O)c1ccccc1)c1cccc(C(=O)Nc2c(Cl)cc(C(F)(C(F)(F)F)C(F)(F)F)cc2OC(F)F)c1F [Compound 119]
≥ 80%: pest or weed control at 200 ppm [1] | pest or weed control at 200 ppm [2] | pest or weed control at 12.5 ppm [3] | pest or weed control at 200 ppm [4] | pest or weed control at 200 ppm [5] | pest or weed control at 200 ppm [6] | pest or weed control at 200 ppm [7]

CCN(C(=O)c1ccc(F)cc1)c1cccc(C(=O)Nc2c(Cl)cc(C(F)(C(F)(F)F)C(F)(F)F)cc2OC(F)F)c1F [Compound 120]
≥ 80%: pest or weed control at 200 ppm [1] | pest or weed control at 200 ppm [2] | pest or weed control at 12.5 ppm [3] | pest or weed control at 200 ppm [4] | pest or weed control at 200 ppm [5] | pest or weed control at 200 ppm [6] | pest or weed control at 200 ppm [7]

CCN(C(=O)c1ccc(F)cc1Cl)c1cccc(C(=O)Nc2c(Cl)cc(C(F)(C(F)(F)F)C(F)(F)F)cc2OC(F)F)c1F [Compound 122]
≥ 80%: pest or weed control at 200 ppm [1] | pest or weed control at 200 ppm [2] | pest or weed control at 12.5 ppm [3] | pest or weed control at 200 ppm [4] | pest or weed control at 200 ppm [5] | pest or weed control at 200 ppm [6] | pest or weed control at 200 ppm [7]

CCN(C(=O)c1ccc(F)cc1)c1cccc(C(=O)Nc2c(Br)cc(C(F)(C(F)(F)F)C(F)(F)F)cc2OC(F)F)c1F [Compound 128]
≥ 80%: pest or weed control at 200 ppm [1] | pest or weed control at 200 ppm [2] | pest or weed control at 12.5 ppm [3] | pest or weed control at 200 ppm [4] | pest or weed control at 200 ppm [5] | pest or weed control at 200 ppm [6] | pest or weed control at 200 ppm [7]

CCN(C(=O)c1ccc([N+](=O)[O-])cc1Cl)c1cccc(C(=O)Nc2c(Br)cc(C(F)(C(F)(F)F)C(F)(F)F)cc2OC(F)F)c1OC [Compound 135]
≥ 80%: pest or weed control at 200 ppm [1] | pest or weed control at 200 ppm [2] | pest or weed control at 12.5 ppm [3] | pest or weed control at 200 ppm [4] | pest or weed control at 200 ppm [5] | pest or weed control at 200 ppm [6] | pest or weed control at 200 ppm [7]

CCN(C(=O)c1ccc(F)cc1)c1cccc(C(=O)Nc2c(Br)cc(C(F)(C(F)(F)F)C(F)(F)F)cc2OC(F)F)c1OC [Compound 139]
≥ 80%: pest or weed control at 200 ppm [1] | pest or weed control at 200 ppm [2] | pest or weed control at 12.5 ppm [3] | pest or weed control at 200 ppm [4] | pest or weed control at 200 ppm [5] | pest or weed control at 200 ppm [6] | pest or weed control at 200 ppm [7]

CCN(C(=O)c1ccc(F)cc1Cl)c1cccc(C(=O)Nc2c(Br)cc(C(F)(C(F)(F)F)C(F)(F)F)cc2OC(F)F)c1OC [Compound 141]
≥ 80%: pest or weed control at 200 ppm [1] | pest or weed control at 200 ppm [2] | pest or weed control at 12.5 ppm [3] | pest or weed control at 200 ppm [4] | pest or weed control at 200 ppm [5] | pest or weed control at 200 ppm [6] | pest or weed control at 200 ppm [7]

CCN(C(=O)c1ccc(F)cc1)c1cccc(C(=O)Nc2c(Cl)cc(C(F)(C(F)(F)F)C(F)(F)F)cc2OC(F)F)c1OC [Compound 156]
≥ 80%: pest or weed control at 200 ppm [1] | pest or weed control at 200 ppm [2] | pest or weed control at 12.5 ppm [3] | pest or weed control at 200 ppm [4] | pest or weed control at 200 ppm [5] | pest or weed control at 200 ppm [6] | pest or weed control at 200 ppm [7]

CCN(C(=O)c1ccc(F)cc1Cl)c1cccc(C(=O)Nc2c(Cl)cc(C(F)(C(F)(F)F)C(F)(F)F)cc2OC(F)F)c1OC [Compound 158]
≥ 80%: pest or weed control at 200 ppm [1] | pest or weed control at 200 ppm [2] | pest or weed control at 12.5 ppm [3] | pest or weed control at 200 ppm [4] | pest or weed control at 200 ppm [5] | pest or weed control at 200 ppm [6] | pest or weed control at 200 ppm [7]

CCN(C(=O)c1ccc([N+](=O)[O-])cc1)c1cccc(C(=O)Nc2c(Br)cc(C(F)(C(F)(F)F)C(F)(F)F)cc2OC(F)F)c1OC [Compound 162]
≥ 80%: pest or weed control at 200 ppm [1] | pest or weed control at 200 ppm [2] | pest or weed control at 12.5 ppm [3] | pest or weed control at 200 ppm [4] | pest or weed control at 200 ppm [5] | pest or weed control at 200 ppm [6] | pest or weed control at 200 ppm [7]
